One assay concerns the target Human PDE10A1 (Homo sapiens, UniProt Q9Y233). Kind of assay: Phosphodiesterase Assay (SPA). The format is biochemical.
A further assay addresses Human PDE5A1 (Homo sapiens, UniProt O76074). Kind of assay: Phosphodiesterase Assay (SPA). The format is biochemical. How it is done:
(§1) 45 37 °C for 30 min (DAT) or 60 min (NET and SER T). The plate is transferred to the FLIPR Tetra®
(§2) 46 instrument and the fluorescence of each well was measured (Ex 470- 495 […]).
(§3) 47 The level of fluores cenc e measured dire ctly relates to the level of uptake of the dye labelled amine,
(§4) 48 with a reduction in levels being related to an inhibition of the respective transporter.
(§5) 49 Phosphodiesterase Assays
(§6) 50 The phosphodiesteras e (P DE) assays m easure the conversion of 3’, 5 ’ -[3H ] cAMP to 5’-[3H] AMP
(§7) 51 (for PDE 3A1 and 4D3) or 3’, 5’-[3H] cGMP to 5’-[3H] GMP (for 5A1) by the relevant PDE
(§8) 52 enzyme subtype. Yttrium silicate (YSi) scintillation proximity (SPA) beads bind selectively to 5’-
(§9) 53 [3H] AMP or 5’-[3H] GMP, with the magnitude of radioactive counts being directly related to
(§10) 54 PDE enzymatic activity. The ass ay was performed in white walled op aque b ottom 384-well plates.
(§11) 55 Test compound (1 µL) in dimethyl sulfoxide was added to each well. Enzyme solution was then
(§12) 56 added to each well in buffer (in mM: Trizma, 50 (pH7.5); MgCl2, 1.3 mM) containing Brij 35
(§13) 57 (0.01% (v/v)). Subsequently, 20 µL of 3’,5’-[3H] cGMP (125 nM) or 20 µL of 3’,5’-[3H] cAMP
(§14) 58 (50 nM) was added to each well to start the reaction and the plate was incubated for 30 min at
(§15) 59 25 °C. The reaction was terminated by the addition of 20 µL of PDE YSi SPA beads (Perkin Elmer,
(§16) 60 Waltham, MA). Followin g an additional 8 h incubation period the plates were read on a MicroBeta
(§17) 61 radioactive plat e counter (Perkin Elmer, Waltham, MA, USA) to determine radioactive counts per
(§18) 63 Bromodomain-Containing Protein 4 (BRD4) Binding Assay
(§19) 64 The BRD4 fluorescent polarization binding assay uses purified His-tagged BRD4 protein and its
(§20) 65 interaction with a Cy5 labelled small molecule probe that binds to the BRD4 site involved in the
(§21) 66 interaction with tetra-acetylated histone H4 peptide. In brief, the assay is performed in low volume

Another assay deals with Human PDE4D3 (Homo sapiens, UniProt Q08499). Kind of assay: Phosphodiesterase Assay (SPA). The assay is classed as biochemical. How it is done: as §1, §2, §3, §4, §5, §6, §7, §8, §9, §10, §11, §12, §13, §14, §15, §16, §17, §18, §19, §20, §21
The target of a further assay is Human PDE3A1 (Homo sapiens, UniProt Q14432). Kind of assay: Phosphodiesterase Assay (SPA). The format is biochemical. How it is done: as §1, §2, §3, §4, §5, §6, §7, §8, §9, §10, §11, §12, §13, §14, §15, §16, §17, §18, §19, §20, §21
The target in the next assay is BRD4 (Homo sapiens, UniProt O60885). Kind of assay: Bromodomain-Containing Protein 4 (BRD4) fluorescence polarization Binding Assay. The protocol: as §1, §2, §3, §4, §5, §6, §7, §8, §9, §10
55 Test compound (1 µL) in dimethyl sulfoxide was added to each well. Enzyme solution was then […]
60 Waltham, MA). Followin g an additional 8 h incubation period the plates were read on a MicroBeta […]
71 temperature fluorescence polarization measurements were made using an Envision plate reader […]
76 of the product color, measured at 405 nm, is proportionate to the enzyme activity in the sample. […]
81 read at the 20 min time point. […]
(In general: Fluorescence polarisation rises when a labelled molecule tumbles more slowly, as on binding a larger partner.)

Sequence of Human PDE4D3 (Q08499 1-673 isoform Q08499-2): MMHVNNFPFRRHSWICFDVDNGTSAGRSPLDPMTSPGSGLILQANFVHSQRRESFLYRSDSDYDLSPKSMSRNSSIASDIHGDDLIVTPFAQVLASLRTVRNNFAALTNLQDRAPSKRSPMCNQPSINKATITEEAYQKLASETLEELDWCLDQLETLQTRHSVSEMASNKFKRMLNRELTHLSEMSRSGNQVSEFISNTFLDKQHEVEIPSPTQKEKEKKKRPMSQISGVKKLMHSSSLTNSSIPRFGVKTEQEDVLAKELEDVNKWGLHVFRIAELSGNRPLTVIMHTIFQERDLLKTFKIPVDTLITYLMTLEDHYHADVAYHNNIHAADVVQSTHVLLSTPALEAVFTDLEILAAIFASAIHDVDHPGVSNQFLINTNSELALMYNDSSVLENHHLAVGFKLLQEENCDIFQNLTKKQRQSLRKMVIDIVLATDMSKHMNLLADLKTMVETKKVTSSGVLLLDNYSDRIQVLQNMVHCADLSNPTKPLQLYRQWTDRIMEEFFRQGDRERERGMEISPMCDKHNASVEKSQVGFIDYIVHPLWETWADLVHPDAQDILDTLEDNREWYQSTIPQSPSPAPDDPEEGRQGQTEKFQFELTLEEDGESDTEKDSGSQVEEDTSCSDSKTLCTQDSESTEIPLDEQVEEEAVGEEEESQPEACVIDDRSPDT
Sequence of Human PDE10A1 (Q9Y233 1-779 isoform Q9Y233-1): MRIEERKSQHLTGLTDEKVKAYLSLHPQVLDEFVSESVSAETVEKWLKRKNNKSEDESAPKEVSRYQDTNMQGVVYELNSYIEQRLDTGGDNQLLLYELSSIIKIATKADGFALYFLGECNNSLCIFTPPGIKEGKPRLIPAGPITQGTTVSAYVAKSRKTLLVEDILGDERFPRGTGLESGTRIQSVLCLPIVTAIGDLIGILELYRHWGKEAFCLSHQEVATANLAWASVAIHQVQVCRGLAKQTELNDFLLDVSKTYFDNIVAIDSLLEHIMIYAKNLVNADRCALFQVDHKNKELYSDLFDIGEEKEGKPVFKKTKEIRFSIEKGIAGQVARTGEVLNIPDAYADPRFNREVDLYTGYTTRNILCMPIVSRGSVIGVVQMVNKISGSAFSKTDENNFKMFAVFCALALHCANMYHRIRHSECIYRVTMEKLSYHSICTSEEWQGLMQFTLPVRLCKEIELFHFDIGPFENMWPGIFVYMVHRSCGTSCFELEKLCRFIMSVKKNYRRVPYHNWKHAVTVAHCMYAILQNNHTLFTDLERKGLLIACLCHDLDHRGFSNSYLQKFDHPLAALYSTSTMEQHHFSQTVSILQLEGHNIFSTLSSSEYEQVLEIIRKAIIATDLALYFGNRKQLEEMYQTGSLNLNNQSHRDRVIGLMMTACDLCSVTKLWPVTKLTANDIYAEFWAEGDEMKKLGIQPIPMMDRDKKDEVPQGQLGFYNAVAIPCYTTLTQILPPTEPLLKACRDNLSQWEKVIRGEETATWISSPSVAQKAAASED
Sequence of Human PDE3A1 (Q14432 whole entry): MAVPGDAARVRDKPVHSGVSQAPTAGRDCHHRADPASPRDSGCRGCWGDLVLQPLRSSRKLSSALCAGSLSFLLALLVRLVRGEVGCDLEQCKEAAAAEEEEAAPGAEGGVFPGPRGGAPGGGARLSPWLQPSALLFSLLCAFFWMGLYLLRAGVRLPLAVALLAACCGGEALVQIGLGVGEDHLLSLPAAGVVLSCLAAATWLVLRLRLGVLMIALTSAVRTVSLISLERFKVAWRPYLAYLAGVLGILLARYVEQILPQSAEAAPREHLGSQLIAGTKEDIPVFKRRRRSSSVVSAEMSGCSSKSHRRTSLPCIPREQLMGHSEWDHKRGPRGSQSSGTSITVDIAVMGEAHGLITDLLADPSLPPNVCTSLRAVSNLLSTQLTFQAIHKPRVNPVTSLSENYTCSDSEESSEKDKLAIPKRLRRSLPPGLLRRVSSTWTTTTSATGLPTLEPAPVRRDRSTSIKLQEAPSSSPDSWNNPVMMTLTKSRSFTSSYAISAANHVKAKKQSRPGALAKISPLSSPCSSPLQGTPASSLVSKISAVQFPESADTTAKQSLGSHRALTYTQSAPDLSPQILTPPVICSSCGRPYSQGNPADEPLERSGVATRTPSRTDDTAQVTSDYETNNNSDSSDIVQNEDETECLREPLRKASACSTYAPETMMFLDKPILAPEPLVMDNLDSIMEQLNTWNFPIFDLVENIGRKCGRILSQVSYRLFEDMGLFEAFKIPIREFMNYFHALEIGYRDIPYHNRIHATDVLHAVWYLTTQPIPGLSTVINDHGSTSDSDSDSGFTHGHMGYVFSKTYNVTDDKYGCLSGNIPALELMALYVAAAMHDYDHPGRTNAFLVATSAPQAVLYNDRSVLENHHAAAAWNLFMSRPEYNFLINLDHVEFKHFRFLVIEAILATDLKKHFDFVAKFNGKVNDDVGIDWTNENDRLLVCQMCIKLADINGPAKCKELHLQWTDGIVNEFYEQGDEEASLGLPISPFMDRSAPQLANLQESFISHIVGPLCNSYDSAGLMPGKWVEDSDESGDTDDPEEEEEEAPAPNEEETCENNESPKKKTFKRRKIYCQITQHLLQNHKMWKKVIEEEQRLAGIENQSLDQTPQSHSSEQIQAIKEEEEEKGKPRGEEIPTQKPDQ

In general, IC50 refers to the concentration that inhibits the measured activity by half. For the compound `CCOc1cc(C)nc(N(CCOC)S(=O)(=O)c2ccc(NCc3c(F)cncc3F)nc2OC)n1` [Compound 1], the IC50 is more than 40 µM at Human PDE10A1; 155 µM at Human PDE5A1; more than 35 µM against Human PDE4D3; 18.4 µM at Human PDE3A1; more than 25 µM at BRD4.

Values taken from PMC10517971, “An inverse agonist of orphan receptor GPR61 acts by a G protein-competitive allosteric mechanism” (Nature Communications, 2023).
